Assay results published in publication PMC10215740 (Antibiotics, 2023).
“And” between values parts separate entries of the source, which are not always exact repeats. Equal entries are not always repeated.

How the values were obtained:
[1] = Time with concentration above MIC targets (T>MIC, %T>MIC) in plasma and spinal tissues, microdialysis porcine model; format: in vivo, pigs (Danish Landrace breed)
Excerpt: (§1) Eight female pigs (Danish Landrace breed, weight 78–82 kg) were included. In general anaesthesia, microdialysis catheters were placed in the third cervical (C3) vertebral cancellous bone, the C3-C4 intervertebral disc, paravertebral muscle, and adjacent subcutaneous tissue. Plasma samples were obtained as a reference. Abiding by the recommendations of replacement, reduction, and refinement (the 3 Rs) when conducting animal studies, the data sampled in extrathecal spinal tissues in the present study are derived from animals where lower extremity data were reported previously. […] The dose and mode of administration used were in accordance with the clinical practice at our institution. Sampling was conducted for 8 h.
(§2) (Figure 3). The microdialysis catheters used were CMA 70 (membrane length 10 and 20 mm, molecular mass cut of 20 kDa; M Dialysis AB, Stockholm, Sweden). Through an anterolateral approach, the C2, C3, and C4 vertebrae were exposed. Using a 2 mm drill, a 25 mm drill hole was made into the C3 vertebra in which a 20 mm microdialysis catheter was placed. Afterward, with aid from a splitable microdialysis introducer (M Dialysis AB, Stockholm, Sweden), a 10 mm microdialysis catheter was positioned in the C3-C4 intervertebral disc, and a 20 mm microdialysis catheter was positioned in both the exposed paravertebral muscle and adjacent subcutaneous tissue. Correct positioning of the microdialysis catheters in the vertebra and the intervertebral disc was verified by fluoroscopy. The catheters were connected to precision pumps (CMA 107; M Dialysis AB, Stockholm, Sweden) and perfused with 0.9% NaCl solution at a flow rate of 1 μL/min.
(§3) After catheter placement, microdialysis sampling was initiated with a tissue-equilibration period of 20 min prior to the antibiotic intravenous administration. […] Microdialysates were collected at 30 min intervals for the first 4 h, and at 60 min intervals for the last 4 h, resulting in a total of 12 samples during an 8-h dosing interval. At the midpoint of each sampling interval, blood samples were collected from a central venous catheter for reference. The blood samples were stored at 5 °C for a maximum of 6 h before being centrifuged (room temperature, 3000 g, 10 min), and plasma aliquots were made. […] The recovery sample was later used for individual catheter calibration and calculation of absolute tissue concentrations. All collected samples were stored at –80 °C until the chemical analyses were performed; microdialysate analyses were performed at the Department of Forensic Medicine, Aarhus University, Denmark, and plasma aliquot analyses were performed at the Department of Clinical Biochemistry, Aarhus University Hospital, Aarhus, Denmark.
(§4) The free drug concentration of meropenem in plasma was quantified using ultra-high performance liquid chromatography (UHPLC).
(§5) The area under the concentration–time curves from zero to the last measured value (AUC0-8h) was calculated using the trapezoidal rule. The Cmax was calculated as the maximum concentration of all the recorded concentrations, and the Tmax was calculated as the time to achieve Cmax. As a measure of tissue penetration, the ratio of tissue AUC to plasma AUC (AUCtissue/AUCplasma) was calculated. A general comparison of the T>MIC and the pharmacokinetic parameters was conducted using repeated measurements of the analysis of variance (ANOVA), followed by pairwise comparisons made by linear regression. Because of a small sample size, it was necessary to conduct a correction for the degrees of freedom by the Kenward–Roger approximation method. Using the visual diagnosis of residuals, fitted values and estimates of random-effects model assumptions were tested. A p-value of less than 0.05 was considered significant.

[2] = Plasma and spinal tissue pharmacokinetics by microdialysis after single-dose co-administered i.v. meropenem and vancomycin; conditions: free drug, single i.v. 1000 mg meropenem + 1000 mg vancomycin co-administered, mean (95%CI)
Excerpt: as §1, §2, §3, §4, §5

[3] = intervertebral disc, microdialysis, pigs, one disc catheter malfunctioned
[4] = paravertebral muscle, microdialysis, pigs n = 8
[5] = subcutaneous tissue, microdialysis, pigs n = 8
[6] = vertebral cancellous bone, microdialysis, pigs n = 8

C[C@@H](O)[C@H]1C(=O)N2C(C(=O)O)=C(S[C@@H]3CN[C@H](C(=O)N(C)C)C3)[C@H](C)[C@H]12 [Meropenem, meropenem]
Mean T>MIC (min) ([1]; meropenem MIC 0.125 μg/mL (low), C3-C4 intervertebral disc, microdialysis, UHPLC-MS/MS, pigs, one disc catheter malfunctioned, single i.v. 1000 mg co-administered with vancomycin, mean): 366 (335; 396) min | Mean T>MIC (min) ([1]; meropenem MIC 0.125 μg/mL (low), C3 vertebral cancellous bone, microdialysis, UHPLC-MS/MS, pigs n = 8, single i.v. 1000 mg co-administered with vancomycin, mean): 244 (215; 272) min | Mean %T>MIC ([1]; meropenem MIC 0.125 μg/mL (low), intervertebral disc, microdialysis, percentage of dosing interval of 450 min, pigs, single i.v. 1000 mg): 81 (74; 88) % | Mean T>MIC (min) ([1]; meropenem MIC 0.125 μg/mL (low), paravertebral muscle, microdialysis, UHPLC-MS/MS, pigs n = 8, single i.v. 1000 mg co-administered with vancomycin, mean): 285 (256; 314) min | Mean %T>MIC ([1]; meropenem MIC 0.125 μg/mL (low), paravertebral muscle, microdialysis, percentage of dosing interval of 450 min, pigs n = 8, single i.v. 1000 mg): 63 (57; 70) % | Mean T>MIC ([1]; meropenem MIC 0.125 μg/mL (low), plasma, free drug, UHPLC, pigs n = 8, single i.v. 1000 mg over 10 min co-administered with vancomycin 1000 mg, linear interpolation, mean): 406 min | Mean %T>MIC ([1]; meropenem MIC 0.125 μg/mL (low), plasma, percentage of dosing interval of 450 min, pigs n = 8, single i.v. 1000 mg co-administered with vancomycin): 90% | Mean T>MIC (min) ([1]; meropenem MIC 0.125 μg/mL (low), subcutaneous tissue, microdialysis, UHPLC-MS/MS, pigs n = 8, single i.v. 1000 mg co-administered with vancomycin, mean): 334 (305; 363) min | Mean %T>MIC ([1]; meropenem MIC 0.125 μg/mL (low), subcutaneous tissue, microdialysis, percentage of dosing interval of 450 min, pigs n = 8, single i.v. 1000 mg): 74 (68; 81) % | Mean %T>MIC ([1]; meropenem MIC 0.125 μg/mL (low), vertebral cancellous bone, microdialysis, percentage of dosing interval of 450 min, pigs n = 8, single i.v. 1000 mg): 54 (48; 61) % | %T>MIC ([1]; meropenem low MIC target (0.125 µg/mL), all the investigated compartments, 8-h dosing interval, pigs, single i.v. 1000 mg): ≥ 54% | %T>MIC ([1]; pig, in vivo): 25–36% | Mean %T>MIC ([1]; pig, in vivo): 36 (33; 40) % | Mean T>MIC (min) ([1]; pig, in vivo): 163 (147; 180) min | %T>MIC ([1]; pig, in vivo, iv): ≤ 40% | Mean %T>MIC ([1]; pig, in vivo, iv): 40% and 26 (22; 30) % and 25 (22; 29) % and 35 (31; 39) % | Mean T>MIC ([1]; pig, in vivo, iv): 181 min | Mean T>MIC (min) ([1]; pig, in vivo, iv): 118 (101; 134) min and 114 (98; 131) min and 158 (141; 175) min | %T>MIC ([1]; pig, in vivo, iv, listed as meropenem): 25–90%

CN[C@H](CC(C)C)C(=O)N[C@H]1C(=O)N[C@@H](CC(N)=O)C(=O)N[C@H]2C(=O)N[C@H]3C(=O)N[C@H](C(=O)N[C@H](C(=O)O)c4cc(O)cc(O)c4-c4cc3ccc4O)[C@H](O)c3ccc(c(Cl)c3)Oc3cc2cc(c3O[C@@H]2O[C@H](CO)[C@@H](O)[C@H](O)[C@H]2O[C@H]2C[C@](C)(N)[C@H](O)[C@H](C)O2)Oc2ccc(cc2Cl)[C@H]1O [Vancomycin, vancomycin]
AUC0-8h [2, 3]: 877 (−325; 2079) min μg/mL | Cmax [2, 3]: 3 (−3; 10) μg/mL | AUC0-8h [2, 4]: 2538 (1379; 3698) min μg/mL | Cmax [2, 4]: 11 (5; 17) μg/mL | Cmax ([2]; plasma, pigs n = 8): 35 (29; 41) μg/mL | AUC0-8h [2, 5]: 3767 (2608; 4927) min μg/mL | Cmax [2, 5]: 17 (11; 23) μg/mL | AUC0-8h [2, 6]: 1698 (539; 2858) min μg/mL | Cmax [2, 6]: 6 (0.4; 12) μg/mL | Mean %T>MIC ([1]; vancomycin MIC 1 μg/mL (low), intervertebral disc, microdialysis, percentage of dosing interval of 450 min, pigs, single i.v. 1000 mg): 69% | Mean T>MIC ([1]; vancomycin MIC 1 μg/mL (low), intervertebral disc, microdialysis, pigs, one disc catheter malfunctioned, single i.v. 1000 mg co-administered with meropenem, mean): 311 min | Mean %T>MIC ([1]; vancomycin MIC 1 μg/mL (low), paravertebral muscle, microdialysis, percentage of dosing interval of 450 min, pigs n = 8, single i.v. 1000 mg): 96% | Mean T>MIC ([1]; vancomycin MIC 1 μg/mL (low), paravertebral muscle, microdialysis, pigs n = 8, single i.v. 1000 mg co-administered with meropenem, mean): 433 min | Mean T>MIC ([1]; vancomycin MIC 1 μg/mL (low), plasma, free drug, enzyme immunoassay, pigs n = 8, single i.v. 1000 mg over 100 min co-administered with meropenem 1000 mg, linear interpolation, mean): 449 min | Mean %T>MIC ([1]; vancomycin MIC 1 μg/mL (low), plasma, percentage of dosing interval of 450 min, pigs n = 8, single i.v. 1000 mg): 100% | Mean T>MIC ([1]; vancomycin MIC 1 μg/mL (low), subcutaneous tissue, microdialysis, UHPLC-MS/MS, pigs n = 8, single i.v. 1000 mg co-administered with meropenem, mean): 435 min | Mean %T>MIC ([1]; vancomycin MIC 1 μg/mL (low), subcutaneous tissue, microdialysis, percentage of dosing interval of 450 min, pigs n = 8, single i.v. 1000 mg): 97% | Mean %T>MIC ([1]; vancomycin MIC 1 μg/mL (low), vertebral cancellous bone, microdialysis, percentage of dosing interval of 450 min, pigs n = 8, single i.v. 1000 mg): 86% | Mean T>MIC ([1]; vancomycin MIC 1 μg/mL (low), vertebral cancellous bone, microdialysis, pigs n = 8, single i.v. 1000 mg co-administered with meropenem, mean): 388 min | Mean %T>MIC ([1]; vancomycin MIC 4 μg/mL (high), intervertebral disc, microdialysis, percentage of dosing interval of 450 min, pigs, single i.v. 1000 mg): 10% | Mean T>MIC ([1]; vancomycin MIC 4 μg/mL (high), intervertebral disc, microdialysis, pigs, one disc catheter malfunctioned, single i.v. 1000 mg co-administered with meropenem, mean): 45 min | Mean T>MIC ([1]; vancomycin MIC 4 μg/mL (high), paravertebral muscle, microdialysis, pigs n = 8, single i.v. 1000 mg co-administered with meropenem, mean): 306 min | Mean T>MIC ([1]; vancomycin MIC 4 μg/mL (high), plasma, free drug, pigs n = 8, single i.v. 1000 mg co-administered with meropenem, mean): 446 min | Mean %T>MIC ([1]; vancomycin MIC 4 μg/mL (high), plasma, percentage of dosing interval of 450 min, pigs n = 8, single i.v. 1000 mg): 99% | Mean %T>MIC ([1]; vancomycin MIC 4 μg/mL (high), subcutaneous tissue, microdialysis, percentage of dosing interval of 450 min, pigs n = 8, single i.v. 1000 mg): 81% | Mean T>MIC ([1]; vancomycin MIC 4 μg/mL (high), subcutaneous tissue, microdialysis, pigs n = 8, single i.v. 1000 mg co-administered with meropenem, mean): 365 min | Mean %T>MIC ([1]; vancomycin MIC 4 μg/mL (high), vertebral cancellous bone, microdialysis, percentage of dosing interval of 450 min, pigs n = 8, single i.v. 1000 mg): 47% | Mean T>MIC ([1]; vancomycin MIC 4 μg/mL (high), vertebral cancellous bone, microdialysis, pigs n = 8, single i.v. 1000 mg co-administered with meropenem, mean): 214 min | %T>MIC ([1]; vancomycin high MIC target (4 µg/mL), all solid tissue compartments, 8-h dosing interval, pigs, single i.v. 1000 mg): ≤ 81% | %T>MIC ([1]; vancomycin low MIC target (1 µg/mL), all the investigated compartments, 8-h dosing interval, pigs, single i.v. 1000 mg): ≥ 69% | %T>MIC ([1]; vancomycin, range across all targeted tissues and plasma and both MIC targets (1 and 4 µg/mL), pigs, single i.v. 1000 mg): 10–100%
